Results taken from patent US12534533B2, “Anti-chemokine like receptor 1 humanized antibodies and their therapeutic applications” (OSE IMMUNOTHERAPEUTICS, priority 2019, dated 2026).

Legend:
[1] = system: peritonitis induced by Zymosan A; test: peritonitis model (Zymosan A); type: in vivo, mice; details: vs isotype control
Experimental: FIG. 7. Effect of an anti-CMKLR1 antibody on a mice peritonitis model. Preventive injection of anti-CMKLR1 was performed before Zymosan A injection (1 mg per mouse in 1 mL): RvE1 (1 μg per mouse) (●), 2G1 antibody (10 μg per mouse) (□) or isotype control antibody (x). A. PMN numbered during the first 50 hours after Zymosan A injection. B. Macrophages numbered during the first 50 hours after Zymosan A injection. C. Resolution index.
Common peritonitis is induced by intraperitoneal injection of Zymosan A® (1 mg per mouse in 1 mL). Preventive injection of anti-CMKLR1 was performed 5 minutes before Zymosan A injection: RvE1 (1 μg per mouse), 2G1 antibody (10 μg per mouse). Murine peritoneal polymorphonuclear neutrophil (PMN) and macrophages were collected at 2-4-8-16-24 and 48 h after Zymosan A injection and numbered by flow cytometry analysis to determinate the resolution index (Bannenberg et al., 2005).

Mice dendritic cells = test: DCs maturation and differentiation, activation markers by FACS; type: cell-based; details: compared to the excipient or isotype control; FIG. 16
Experimental: FIG. 1. Effect of the anti-CMKLR1 variants 1G1, 2G1, 3G1 and 4G1 chimeric antibodies on the DCs maturation and differentiation. Mice dendritic cells were incubated during maturation phase (24 h or 48 h) followed by a differentiation phase with excipient or RvE1 or anti-CMKLR1 antibodies variants (mutations on positions 1 and 2 of SEQ ID No. 8, corresponding to the VH-CDR3: 1G1 (LL), 2G1 (LI), 3G1 (IL) or 4G1 (II) or isotype controls (hIgG1 or mIgG)). Cells were then stained for FACS analysis with cell marker antibodies: A. CD80-PE; B. CD86-FITC; C. CD103-PerCPCy5.5; D. I/Ab-APC. Mean of Fluorescence was determined in each condition. E and F represent the viability of the cells measured by FACS using LIVE/DEAD® kit from Life Technologies in each condition after 24 or 48 hours of maturation respectively.
FIG. 16. Study of the myeloid cell activation markers after CMKLR1 pathway activation. Dendritic cells incubated in excipient, RvE1, 2G1 or isotype control (hIgG1) were then stained for FACS analysis with marker antibodies: A. CD80-PE. B. CD86-FITC. C. CD103-PerCPCy5.5. D. CD40-PeCy7. E. I/Ab-APC. Mean of Fluorescence was determined in each condition.
Bone marrow cells were harvested and cultured in RPMI medium supplemented with 10% FBS, glutamine and antibiotics and the dendritic cell differentiation was induced by GM-CSF at 20 ng/ml for 7 days. Then, immature dendritic cells (iDC) were collected and cultured for 24 hours with LPS (100 ng/ml) to induce the maturation from iDC to mDC. Treatments were added during differentiation and maturation at 2 μg/ml.
Dendritic cells were resuspended in PBS-FBS-EDTA and incubated with live and dead (LIVE/DEAD® Fixable Dead Cell Stains Yellow-Life Technologies) for 30 minutes on ice. Staining of CD11c-BV711, CD11b-APCCy7, I/Ab-APC, CD103-PerCPCy5.5, CCR7-V450, CD40-PeCy7, CD80-PE, CD86-FITC (all provided by BD Pharmingen) were performed.

colitis induced by TNBS = test: acute inflammatory colitis model induced by TNBS; type: in vivo, mice; details: RvE1 1 μg per mouse daily, 2G1 10 μg per mouse; FIG. 3
Experimental: FIG. 3. Effect of an anti-CMKLR1 antibody on a mice acute inflammatory colitis model induced by TNBS. Mice received 200 μL of the haptenating agent TNBS at 5% in 50% ethanol on day 0 and then were injected with isotype control hIgG1 (10 μg per mouse) (x), RvE1 (1 μg per mouse) daily (●), or 2G1 antibody (10 μg per mouse) three times (□) for 5 days, or non-treated (wild type animals) (▴). Mice were sacrificed colon length was measured in each condition.
Colitis was induced in 8-10 weeks-old-C57Bl/6 male mice by intrarectal injection of 200 μL of the haptenating agent TNBS at 5% in 50% ethanol on day 0. Treatments were injected intra-peritoneally; RvE1 (1 μg per mouse) daily for three days, or 2G1 antibody (10 μg per mouse) twice for 3 days. Colitis follow-up consisting of body weight and stool score (0: normal stool; 4: blood in stool) parameters were performed daily (data not represented). When mice are euthanized, colon length representing the pathology severity was measured.

[2] = target: T1, Biot-C7 peptide (human ChemR23 peptide, SEQ ID No. 60) (Homo sapiens, UniProt Q99788); test: activity ELISA assay, binding of biotinylated C7 peptide; details: compared to wild-type 2G1; FIG. 23, FIG. 33
T1 construct: purchased synpeptide; host or cells: chemical synthesis
T1 sequence (Q99788 275-307 limits assumed): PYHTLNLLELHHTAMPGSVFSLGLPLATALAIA
From the text: FIG. 23. Binding recognition of C7 peptide by humanized anti-CMKLR1 derived from 2G1. Binding of C7biot in the supernatant of CHO cells transfected with different combinations of heavy and light chains (VHWT+VLWT: combination of SEQ ID No. 37 and SEQ ID No. 49; HCLC: combination of SEQ ID No. 42 and SEQ ID No.52; HDLC: combination of SEQ ID No. 43 and SEQ ID No.52; HCLD: combination of SEQ ID No. 42 and SEQ ID No.53; HDLD: combination of SEQ ID No. 43 and SEQ ID No.53).
FIG. 24. ED50 of anti-CMKLR1 derived from 2G1 antibody. 2G1 wt: HALA: combination of SEQ ID No. 41 and SEQ ID No. 50; combination of SEQ ID No. 37 and SEQ ID No. 49; HCLC: combination of SEQ ID No. 42 and SEQ ID No.52; HDLC: combination of SEQ ID No. 43 and SEQ ID No.52; HCLD: combination of SEQ ID No. 42 and SEQ ID No.53; HDLD: combination of SEQ ID No. 43 and SEQ ID No.53.
FIG. 33—Binding of purified antibodies on human ChemR23 peptide by ELISA assay (A), with ED50 concentration (ng/ml) (B). For activity ELISA assay, donkey anti-human IgG, Fc specific (Jackson Immunoresearch; USA; reference 709-005-098) was immobilized on plastic at 1.3 μg/ml in borate buffer (pH9) and purified antibody was added to measure binding in BSA1% buffer, compared to wild-type 2G1.
For activity ELISA assay, donkey anti-human IgG, Fc specific (Jackson Immunoresearch; USA; reference 709-005-098) was immobilized on plastic at 1.3 μg/ml in borate buffer (pH9) and purified antibody were added to measure binding in BSA1% buffer, compared to wild-type 2G1.
For activity ELISA assay, donkey anti-human IgG, Fc specific (Jackson Immunoresearch; USA; reference 709-005-098) was immobilized on plastic at 1.3 μg/ml in borate buffer (pH9) and purified antibody was added to measure binding in BSA1% buffer, compared to wild-type 2G1.

[3] = system: PMN from healthy volunteers; test: Percentage of dead PMN (mortality of neutrophils) on coated antibodies; type: cell-based, human; details: coated Ab at 10 μg/mL, 24 h; FIG. 26, FIG. 36
Experimental: […] Mortality of PMN was analyzed by incubating PMN with specific markers of the mortality and viability and then counted by picture analysis.
(§1) FIG. 36—Increase of dead PMN neutrophils in vitro with anti-ChemR23 antibodies coated. PMN from healthy volunteers were incubated in culture medium with coated HEF-LDT52S, HEF-LEF and HDLD antibody variants at 10 μg/mL for 24 h and stained either with a dead/viability kit (LIVE/DEAD (Invitrogen)). The percentages of positive cells were obtained by analyzing the pictures with Fiji software. Isotype control was added as control.
PMN from healthy volunteers were incubated in culture medium with coated Ab at 10 μg/mL for 24 h or 5 h and stained either with a dead/viability kit (LIVE/DEAD (Invitrogen)) or a specific marker of reactive oxygen species (ROS) respectively. The percentages of positive cells were obtained by analyzing the pictures with ImageJ software.
as §1, with “PMN” for “FIG. 36—Increase of dead PMN neutrophils in vitro with anti-ChemR23 antibodies coated. PMN”

CC[C@@H](O)/C=C/C=C\C[C@@H](O)/C=C/C=C/C=C\[C@@H](O)CCCC(=O)O [RvE1, Resolvin E1, reference compound]
PMNs number ([1]; first 50 hours after Zymosan A, FIG. 7A): slightly less | Macrophages number ([1]; first 50 hours after Zymosan A, FIG. 7B): slightly less | resolution index ([1]; FIG. 7C): better resolution index | expression of CD80, CD86, CD103, CD40 and IAb (Mice dendritic cells): strong decrease | colon length (colitis induced by TNBS): the same as normal animal

B1: HCLC: humanized 2G1 variant: combination of SEQ ID No. 42 and SEQ ID No. 52 (antibody, V domains shown)
VH: EVQLVESGGGLVQPGGSLRLSCAASGFTFSSYGMSWVRQAPGKGLELVATINRYGGSTYYAASVKGRFTISRDNSKNTLYLQMNSLRAEDTAVYYCPKLIYYGNEGDSWGQGTLVTVSS
VL: AIQLTQSPSSLSASVGDRVTITCRASQSVSFLHWYQQKPGKAPKRWIYDATKLTSGVPSRFSGSGSGTDFTLTISSLQPEDFATYYCQQWNSKPPLTFGGGTKVEIK
binding activity to antigen-specific peptides (C7 peptide) [2]: even better than the germline antibody HALA and the wild type antibody 2G1

B2: HDLC: humanized 2G1 variant: combination of SEQ ID No. 43 and SEQ ID No. 52 (antibody, V domains shown)
VH: EVQLVESGGGLVQPGGSLRLSCAASGFTFSSYAMSWVRQAPGKGLELVATINRYGGSTYYAASVKGRFTISRDNSKNTLYLQMNSLRAEDTAVYYCPKLIYYGNEGDSWGQGTLVTVSS
VL: AIQLTQSPSSLSASVGDRVTITCRASQSVSFLHWYQQKPGKAPKRWIYDATKLTSGVPSRFSGSGSGTDFTLTISSLQPEDFATYYCQQWNSKPPLTFGGGTKVEIK
binding activity to antigen-specific peptides (C7 peptide) [2]: even better than the germline antibody HALA and the wild type antibody 2G1

B3: HEF-LEF: humanized 2G1 variant: HEF (SEQ ID NO: 91) with LEF (SEQ ID NO: 55) (antibody, V domains shown)
VH: EVQLVESGGGLVQPGGSLRLSCAASGFTFSSYAMSWVRQAPGKGLELVSTISGSGGSTYYAASVKGRFTISRDNSKNTLYLQMNSLRAEDTAVYYCPKLIYYGNEGDSWGQGTLVTVSS
VL: AIQLTQSPSSLSASVGDRVTITCRASQSVSFLHWYQQKPGKAPKRLIYDASKLESGVPSRFSGSGSGTDFTLTISSLQPEDFATYYCQQWQSKPPLTFGGGTKVEIK
mortality of PMN (percentage of dead PMN) [3]: accelerate the death of PMN

B4: HCLD: humanized 2G1 variant: combination of SEQ ID No. 42 and SEQ ID No. 53 (antibody, V domains shown)
VH: EVQLVESGGGLVQPGGSLRLSCAASGFTFSSYGMSWVRQAPGKGLELVATINRYGGSTYYAASVKGRFTISRDNSKNTLYLQMNSLRAEDTAVYYCPKLIYYGNEGDSWGQGTLVTVSS
VL: AIQLTQSPSSLSASVGDRVTITCRASQSVSFLHWYQQKPGKAPKRWIYDATKLTSGVPSRFSGSGSGTDFTLTISSLQPEDFATYYCQQWQSKPPLTFGGGTKVEIK
binding activity to antigen-specific peptides (C7 peptide) [2]: even better than the germline antibody HALA and the wild type antibody 2G1
